# Measurements taken from PMC8012336, “An automated and high-throughput-screening compatible pluripotent stem cell-based test platform for developmental and reproductive toxicity assessment of small molecule compounds” (Cell Biology and Toxicology, 2020).
# Where two headings read alike, the source gives them in different places.
# Experiments:
# [1] = system: NIH/3T3; experiment: Manual MTT cell viability assay, 7 d; assay type: cell-based, mouse
# Protocol: (§1) The MTT cell viability assay was performed as described (Seiler and Spielmann [2011]) with modifications. In brief, 96-well cell culture plates were coated with gelatin (0.1%) before plating mESC-D3. All peripheral wells of the assay plate were filled with 200 μl growth media (“blank”). Afterward, NIH/3T3 and mESC-D3 were plated in growth media (1 × 10^4 cells/ml, 50 μl/well). […] Vehicle (PBS) and positive control (5-fluorouracil) wells were also included on all assay plates. Three and 5 days after seeding the cell supernatant was replaced by freshly prepared compound solution (200 μl/well). Seven days after seeding the cell viability was detected. Therefore, the cell supernatant was aspirated from all wells, MTT solution (5 mg/ml) was added (20 μl/well) and the assay plate was incubated for 2 h at 37 °C and 5% CO2 in a humidified atmosphere. Afterward, all liquid was removed from the wells and MTT desorb solution (0.7% SDS in 2-propanol (Carl Roth, Cat. No. 9866.5), pre-warmed to 37 °C) was dispensed (130 μl/well). The assay plate was placed on a shaker for 15 min. Remaining precipitates were suspended by pipetting up and down with a multichannel pipette before measuring the absorption at 570 nm on a microtiter plate reader using 630 nm as a reference wavelength.
# (§2) Toxicity data from the MTT and CellTiter-Glo Assay was normalized against the vehicle control (100% viability) and plotted against the logarithmic compound concentration.
# [2] = system: mESC-D3; experiment: Manual MTT cell viability assay, 7 d; assay type: cell-based, mouse
# Protocol: as §1, §2
# [3] = system: NIH/3T3; experiment: Manual CellTiter-Glo luminescent cell viability assay (7 d or 5 d); assay type: cell-based, mouse; settings: in brackets the two individual experiments
# Protocol: (§3) 96-well cell culture plates were coated with gelatin (0.1%) before plating mESC-D3. All peripheral wells of the assay plate were filled with 200 μl growth media. In order to assess compound toxicity on mESC-D3 and NIH/3T3 cells, cell suspensions of NIH/3T3, and mESC-D3 were prepared in growth media (1 × 10^4 cells/ml) and were transferred to all remaining wells (50 μl/well). A 7-point dilution series in growth media was prepared for each test compound and was transferred to the assay plate 2 h after cell seeding (150 μl/well). Afterward, the cells were incubated in a humidified atmosphere at 37 °C and 5% CO2. Three and 5 days after seeding the cell supernatant was replaced by freshly prepared compound solution (200 μl/well). […] The assay plate was placed on a shaker for 1 min and after another 10 min incubation at room temperature in the dark the luminescence signal was detected on a plate reader.
# as §2
# [4] = system: mESC-D3; experiment: as above; assay type: cell-based, mouse; settings: in brackets the two individual experiments
# Protocol: as §3, §2
# [5] = system: HDFf (human dermal fibroblasts of fetal origin); experiment: Manual human EST cytotoxicity assay, MTT, 5 d
# Protocol: (§4) The cytotoxicity assessment with a reduced assay time of 5 days combined with either NADH- or ATP-based detection was also carried out with human induced pluripotent stem cells (hiPSCs). […] Furthermore, differences in the cytotoxicity effects between the hiPSCs and HDFfs were more pronounced than in the mouse cells. Similar to the cytotoxicity-based assay the overall variance in the data is reduced when viability data was obtained by an ATP-based read-out.
# as §1
# (§5) Figure S1: Step-wise evolution of the cytotoxicity assay towards the use of human cell lines. Related to Figure 2. Cytotoxicity assays were carried out with two compound sets on hiPSC line ZIPi013-E and HDFf, from which they were derived. […] A) 5 day MTT assay and manual handling. B) As in A), but using CellTiter-Glo® viability assay. All points in the graph represent the mean of 6 individual data points, including the standard error.
# [6] = system: hiPSC line ZIPi013-E; experiment: Manual human EST cytotoxicity assay, MTT, 5 d
# Protocol: as §4, §1, §5
# [7] = system: HDFf (human dermal fibroblasts of fetal origin); experiment: Manual human EST cytotoxicity assay, CellTiter-Glo, 5 d
# Protocol: as §4
# (§6) 96-well cell culture plates were coated with gelatin (0.1%) before plating mESC-D3. All peripheral wells of the assay plate were filled with 200 μl growth media. In order to assess compound toxicity on mESC-D3 and NIH/3T3 cells, cell suspensions of NIH/3T3, and mESC-D3 were prepared in growth media (1 × 10^4 cells/ml) and were transferred to all remaining wells (50 μl/well). A 7-point dilution series in growth media was prepared for each test compound and was transferred to the assay plate 2 h after cell seeding (150 μl/well). Afterward, the cells were incubated in a humidified atmosphere at 37 °C and 5% CO2. Three and 5 days after seeding the cell supernatant was replaced by freshly prepared compound solution (200 μl/well). Seven days after seeding the assay plate was taken out of the incubator and located at room temperature for 10 min, before cell supernatant was aspirated (80 μl/well) and CellTiter-Glo® reagent was dispensed (50 μl/well). The assay plate was placed on a shaker for 1 min and after another 10 min incubation at room temperature in the dark the luminescence signal was detected on a plate reader.
# as §5
# [8] = system: hiPSC line ZIPi013-E; experiment: as above
# Protocol: as §4, §6, §5
# [9] = Manual MTT cell viability assay, 7 d; assay type: cell-based, mouse; settings: mouse, manual, in brackets the two individual experiments
# Protocol: as §1, §2
# [10] = Manual CellTiter-Glo luminescent cell viability assay (7 d or 5 d); assay type: cell-based, mouse; settings: mouse, in brackets the two individual experiments
# Protocol: as §3, §2
SMILES,"Cytotoxicity assay MTT, 7 d IC50 NIH/3T3 [1]","Cytotoxicity assay MTT, 7 d IC50 mESC-D3 [2]","Cytotoxicity assay CTG, 5 d IC50 NIH/3T3 ([3]; 5 d)","Cytotoxicity assay CTG, 7 d IC50 NIH/ 3T3 ([3]; 7 d)","Cytotoxicity assay CTG, 5 d IC50 mESC-D3 ([4]; 5 d)","Cytotoxicity assay CTG, 7 d IC50 mESC-D3 ([4]; 7 d)","Cytotoxicity assay MTT, 5 d IC50 HDFf [5] [µg/mL]","Cytotoxicity assay MTT, 5 d IC50 ZIPi013-E [6] [µg/mL]","Cytotoxicity assay CTG, 5 d IC50 HDFf [7] [µg/mL]","Cytotoxicity assay CTG, 5 d IC50 ZIPi013-E [8] [µg/mL]","IC50 at 7 d ([9]; NIH/3T3 cells, read-out: Cytotoxicity assay MTT, 7 d IC50 NIH/3T3) [µg/mL]","IC50 at 7 d ([9]; mESC-D3 cells, read-out: Cytotoxicity assay MTT, 7 d IC50 mESC-D3) [µg/mL]","IC50 at 5 d ([10]; NIH/3T3 cells, read-out: Cytotoxicity assay CTG, 5 d IC50 NIH/3T3) [µg/mL]","IC50 at 7 d ([10]; NIH/3T3 cells, read-out: Cytotoxicity assay CTG, 7 d IC50 NIH/ 3T3) [µg/mL]","IC50 at 5 d ([10]; mESC-D3 cells, read-out: Cytotoxicity assay CTG, 5 d IC50 mESC-D3) [µg/mL]","IC50 at 7 d ([10]; mESC-D3 cells, read-out: Cytotoxicity assay CTG, 7 d IC50 mESC-D3) [µg/mL]"
"NC(=O)NO [Hydroxyurea, hydroxyurea]",2.17 (1.81; 2.53) µg/ml,2.11 (2.08; 2.15) µg/ml,3.12 (> 10; 3.12) µg/ml,4.83 (> 10; 4.83) µg/ml,3.19 (4.12; 2.26) µg/ml,2.37 (2.28; 2.46) µg/ml,4.005,0.3326,30.15,0.8652,–,–,–,–,–,–
"O=C1NS(=O)(=O)c2ccccc21 [Saccharin, saccharin]",–,–,–,–,–,–,–,–,–,–,> 1000,> 1000,> 1000,> 1000,464,> 1000
